In assay [1] the test system is chloroquine sensitive Pf NF54 strain. The settings on record: tritiated hypoxanthine assay; ref Figueiredo et al., 1998; Li et al., 2019; cited from earlier work.
Assay [2] deals with asexual blood stage P. falciparum W2 (multidrug resistant). Description: SYBR Green I proliferation assay, asexual blood stage Pf W2. The assay is classed as cell-based, Plasmodium falciparum. The protocol: In vitro cultivation of asexual and gametocyte P. falciparum parasites: P. falciparum asexual blood stage parasites were cultivated in human erythrocytes in RPMI-1640 media supplemented with AlbuMax II under sterile conditions and in a hypoxic environment (90% N2, 5% CO2, and 5% O2) at 37°C as described previously ([Coertzen et al., 2018]; [Wong et al., 2019]). Gametocytes were produced from asexual blood stage parasites in a stage-specific manner through induction of cellular stress as described previously ([Reader et al., 2015]; [Coertzen et al., 2018]; [Wong et al., 2019]; [Reader et al., 2022]).
DHA, artesunate, artemether, chloroquine (CQ), and methylene blue (MB) were used as reference drugs. […] Dose-responses were determined using a 2-fold serial drug dilution on in vitro 95% ring-stage intraerythrocytic Pf parasites (1% parasitemia, 1% hematocrit) at 37°C under 90% N2, 5% CO2, and 5% O2 atmospheric conditions, detecting SYBR green I fluorescence as a marker for parasite proliferation following a 96 h drug treatment ([Smilkstein et al., 2004]; [Verlinden et al., 2011]). Activity against the Pf drug-sensitive NF54 strain and the multi drug-resistant K1 (resistant to CQ, quinine, pyrimethamine, and cycloguanil), and W2 (resistant to CQ, quinine, pyrimethamine, and cycloguanil) strains was evaluated. […]

The subject of assay [3] is late stage IV-V P. falciparum NF54 gametocytes. Further details: method as in Coertzen et al., 2018, Wong et al., 2019. The conditions noted are these: ref Coertzen et al., 2018, Wong et al., 2019, cited from earlier work.

Consider two compounds from article PMC9479156 (Frontiers in Pharmacology, 2022).

In the case of `CC1=C(O)C(=O)C=C2C1=CC=C1[C@@]2(C)CC[C@@]2(C)[C@@H]3C[C@](C)(C(=O)O)CC[C@]3(C)CC[C@]12C` [Celastrol, celastrol], the half-maximal inhibitory concentration (IC50) (as a rule, the concentration that inhibits the measured activity by half) in assay [1] is 564 nM; in assay [2] (Plasmodium falciparum, W2, 96 h, read-out: IC50 W2) it was 500 ± 100 nM. For the same compound, the “RI = IC50 W2/IC50 NF54” value in assay [2] (this study) is 0.61.

`C[C@H]1[C@H](N2CCS(=O)(=O)CC2)O[C@@H]2O[C@@]3(C)CC[C@H]4[C@H](C)CC[C@@H]1[C@@]24OO3` [Artemisone, artemisone]: the half-inhibitory concentration (IC50) in assay [3] (NF54 gametocytes, luciferase, 72 h, mean ± SEM, read-out: Late stage IV-V (luc 72 h) IC50) was 42.4 ± 3.3 nM. Besides, the “Fold change preference ratio LG to EG” value in assay [3] (late vs immature stage gametocytes) was 0.05.
